Assay results published in US12534444B2, “Treatment of cancer/inhibition of metastasis” (Celex Oncology Innovations Limited, priority 2010, dated 2026).

Legend:
MDA-MB-231 cells = experiment: Single-cell adhesion assay (SCAMA, detachment negative pressure); type: cell-based, human
Description: FIG. 4 is a schematic illustration of the single-cell adhesion measurement apparatus (SCAMA) first described in the paper by Palmer et al. (2008). Human breast cancer cells from the MDA-MB-231 cell line were plated at a density of 2.5×10^4 cells/ml and left to settle in a cell culture dish 401 for 48 hours prior to measurements. Medium was removed and 2 ml of the drug under study was applied for 10 minutes. Adhesion was measured using a glass micropipette 402 connected to a vacuum pump 403 via plastic tubing 404. The tip of the micropipette was drawn to about 20 μm (range, 17-24 μm) tip diameter. The vacuum pump was used to create negative pressure inside a reservoir 405 so that the negative pressure could be applied to the tip of the micropipette by pressing the thumb to the open end of a sealable T-piece 406. […] The pressure was measured using a digital manometer 409 connected to a computer 410 via a RS232 cable 411. Using a micromanipulator 412, the micropipette 402 was positioned on the periphery of a single cell. […] The negative pressure required to detach the cell was recorded on the computer as a pressure spike. The peak of the spike (“detachment negative pressure” (DNP)) was used as a measure of the cell's adhesiveness. Using this technique, several recordings could be made from a single dish within minutes. […] In order to test for the reversibility of a given effect, the pharmacological agent was washed off, fresh medium was added and the plate was incubated for a further 10 minutes prior to re-measurement. Each treatment was carried out on at least two dishes of cells, at least 100 cells per dish were measured, and the experiment was repeated three times (with corresponding controls). In the single cell adhesion experiments, hypoxia was induced chemically by application of hydrogen peroxide (1-500 μM) for 24 hours.

Mat-LyLu cells = experiment: Transverse migration assay (Transwell); type: cell-based, rat
Description: This assay was used to represent the ability of cells to migrate as they intra/extravasate. […] The insert 602 has a migration filter membrane 605 in its base with 8 μm pores 606 extending therethrough.
Cells 607 were plated at a density of 2×10^4/ml on the filter membrane 605 and placed under a growth medium 608 containing 1% foetal bovine serum (FBS). A chemotactic gradient was created across the filter membrane 605 by placing growth medium 609 containing 10% FBS in the lower section 604 of the chamber.
Cells were allowed to migrate across the filter membrane 605 over a period of 24 hours, cells migrating and adhering to the underside of the filter membrane 605.
At the end of each assay, non-migrated cells were removed from the upper surface of the insert 602 with two different swabs
The number of cells migrating to the underside of the insert 602 was determined using crystal violet staining. Migrated cells were fixed for 15 minutes with ice-cold methanol. Then 0.5% crystal violet (in 25% methanol) was added for 15 minutes. The inserts were swabbed again and then washed in water and allowed to dry. Cells were then counted using twelve separate fields of view per insert (×200 magnification).
With the exception of single cell adhesion tests, which are discussed in the following paragraph, experiments were carried out under either; • (i) normal normoxic conditions ([…], 5% carbon dioxide), or • (ii) following 24 hours hypoxic pre-treatment (2% O2, 5% CO2, 93% N2) continued during the assays.

COc1ccccc1OCC(O)CN1CCN(CC(=O)Nc2c(C)cccc2C)CC1 (stereo not drawn) [ranolazine]
ADHESION (MDA-MB-231 cells; Hypoxia (chemically induced, hydrogen peroxide 24 hours), 0.1 μM): increased
ADHESION (MDA-MB-231 cells; Hypoxia (chemically induced, hydrogen peroxide 24 hours), 1 μM): continued to increase
ADHESION (MDA-MB-231 cells; Hypoxia (chemically induced, hydrogen peroxide 24 hours), 1 μM, listed as RANOLAZINE): increased
ADHESION (MDA-MB-231 cells; Hypoxia (chemically induced, hydrogen peroxide 24 hours), 10 μM): continued to increase
ADHESION (MDA-MB-231 cells; Hypoxia (chemically induced, hydrogen peroxide 24 hours), 10 μM, listed as RANOLAZINE): decreased
ADHESION (MDA-MB-231 cells; Hypoxia (chemically induced, hydrogen peroxide 24 hours), 100 μM): continued to increase
ADHESION (MDA-MB-231 cells; Hypoxia (chemically induced, hydrogen peroxide 24 hours), 100 μM, listed as RANOLAZINE): no benefit
ADHESION (MDA-MB-231 cells; Normoxia, 0.1 μM): no effect
ADHESION (MDA-MB-231 cells; Normoxia, 0.5 μM): increased
ADHESION (MDA-MB-231 cells; Normoxia, 1 μM): increased
ADHESION (MDA-MB-231 cells; Normoxia, 10 μM): increased
ADHESION (MDA-MB-231 cells; Normoxia, 20 μM): increased
ADHESION (MDA-MB-231 cells; Normoxia, 100 μM): increased
effect on adhesion in hypoxia compared with normoxia (MDA-MB-231 cells; before convergence at the higher drug concentrations): approximately 10 fold
TRANSVERSE MIGRATION (Mat-LyLu cells; Hypoxia, 20 μM): reduced the transverse migration of the cells in a statistically significant way
TRANSVERSE MIGRATION (Mat-LyLu cells; Hypoxia, 20 μM, listed as RANOLAZINE): decreased
TRANSVERSE MIGRATION (Mat-LyLu cells; Hypoxia, 50 μM): reduced the transverse migration of the cells in a statistically significant way
TRANSVERSE MIGRATION (Mat-LyLu cells; Hypoxia, 50 μM, listed as RANOLAZINE): decreased
TRANSVERSE MIGRATION (Mat-LyLu cells; Hypoxia, 300 μM): reduced the transverse migration of the cells in a statistically significant way
TRANSVERSE MIGRATION (Mat-LyLu cells; Hypoxia, 300 μM, listed as RANOLAZINE): decreased
TRANSVERSE MIGRATION (Mat-LyLu cells; Normoxia, 20 μM): reduced the transverse migration
TRANSVERSE MIGRATION (Mat-LyLu cells; Normoxia, 20 μM, listed as RANOLAZINE): decreased
TRANSVERSE MIGRATION (Mat-LyLu cells; Normoxia, 50 μM): reduced the transverse migration
TRANSVERSE MIGRATION (Mat-LyLu cells; Normoxia, 50 μM, listed as RANOLAZINE): decreased
TRANSVERSE MIGRATION (Mat-LyLu cells; Normoxia, 300 μM): not statistically significant
TRANSVERSE MIGRATION (Mat-LyLu cells; Normoxia, 300 μM, listed as RANOLAZINE): no effect
potency on transverse migration compared with positive control TTX (Mat-LyLu cells; higher concentrations tested, TTX 1 μmol): more potent than the toxin (TTX)
